Legend:
Prothrombin = Prothrombin (Homo sapiens, UniProt P00734); format: functional
[1] = target: T1, 5-hydroxytryptamine receptor 1A (Homo sapiens, UniProt P08908)
T1 sequence (P08908 whole entry): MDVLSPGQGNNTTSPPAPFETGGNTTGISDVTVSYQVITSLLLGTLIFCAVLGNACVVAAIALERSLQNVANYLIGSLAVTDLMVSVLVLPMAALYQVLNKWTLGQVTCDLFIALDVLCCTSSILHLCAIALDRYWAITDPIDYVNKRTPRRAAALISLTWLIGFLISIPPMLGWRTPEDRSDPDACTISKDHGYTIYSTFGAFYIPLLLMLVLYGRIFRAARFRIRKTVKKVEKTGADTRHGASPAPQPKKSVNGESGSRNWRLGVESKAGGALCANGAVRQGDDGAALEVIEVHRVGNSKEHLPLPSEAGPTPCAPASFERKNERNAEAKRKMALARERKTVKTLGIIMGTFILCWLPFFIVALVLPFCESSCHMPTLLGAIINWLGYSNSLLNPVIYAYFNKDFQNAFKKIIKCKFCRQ

Thromboxane A2 receptor = target: T2, Thromboxane A2 receptor (Homo sapiens, UniProt P21731); format: functional, cell-based
T2 sequence (P21731 whole entry): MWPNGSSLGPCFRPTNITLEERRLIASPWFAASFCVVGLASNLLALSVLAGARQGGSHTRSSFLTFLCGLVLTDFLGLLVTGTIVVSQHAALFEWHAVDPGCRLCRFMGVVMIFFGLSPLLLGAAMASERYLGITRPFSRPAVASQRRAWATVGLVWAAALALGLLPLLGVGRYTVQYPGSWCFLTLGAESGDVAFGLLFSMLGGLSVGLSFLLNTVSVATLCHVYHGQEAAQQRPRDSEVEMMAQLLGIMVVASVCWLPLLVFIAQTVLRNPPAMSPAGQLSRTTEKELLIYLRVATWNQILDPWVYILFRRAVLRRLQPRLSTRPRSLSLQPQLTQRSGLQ

Estrogen receptor = target: T3, Estrogen receptor (Homo sapiens, UniProt P03372)
T3 sequence (P03372 whole entry): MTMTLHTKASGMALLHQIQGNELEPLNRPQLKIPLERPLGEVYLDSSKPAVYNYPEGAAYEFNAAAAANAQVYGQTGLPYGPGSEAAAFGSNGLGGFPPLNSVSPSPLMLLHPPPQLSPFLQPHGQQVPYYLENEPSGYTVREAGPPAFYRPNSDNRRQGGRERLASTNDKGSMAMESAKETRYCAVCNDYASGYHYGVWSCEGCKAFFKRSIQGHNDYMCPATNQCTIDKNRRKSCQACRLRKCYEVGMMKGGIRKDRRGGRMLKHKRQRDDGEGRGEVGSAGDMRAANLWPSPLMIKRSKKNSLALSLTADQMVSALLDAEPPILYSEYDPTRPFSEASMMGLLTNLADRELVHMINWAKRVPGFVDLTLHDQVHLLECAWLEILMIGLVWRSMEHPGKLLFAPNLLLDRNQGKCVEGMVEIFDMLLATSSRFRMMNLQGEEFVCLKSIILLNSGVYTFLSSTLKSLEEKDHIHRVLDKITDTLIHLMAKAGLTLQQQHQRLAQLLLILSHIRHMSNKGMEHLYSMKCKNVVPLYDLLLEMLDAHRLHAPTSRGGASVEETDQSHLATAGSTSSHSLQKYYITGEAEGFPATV

[2] = target: Prostaglandin G/H synthase 1 (Homo sapiens, UniProt P23219); format: functional
[3] = target: T4, Amine oxidase [flavin-containing] A (Homo sapiens, UniProt P21397); format: functional
T4 sequence (P21397 whole entry): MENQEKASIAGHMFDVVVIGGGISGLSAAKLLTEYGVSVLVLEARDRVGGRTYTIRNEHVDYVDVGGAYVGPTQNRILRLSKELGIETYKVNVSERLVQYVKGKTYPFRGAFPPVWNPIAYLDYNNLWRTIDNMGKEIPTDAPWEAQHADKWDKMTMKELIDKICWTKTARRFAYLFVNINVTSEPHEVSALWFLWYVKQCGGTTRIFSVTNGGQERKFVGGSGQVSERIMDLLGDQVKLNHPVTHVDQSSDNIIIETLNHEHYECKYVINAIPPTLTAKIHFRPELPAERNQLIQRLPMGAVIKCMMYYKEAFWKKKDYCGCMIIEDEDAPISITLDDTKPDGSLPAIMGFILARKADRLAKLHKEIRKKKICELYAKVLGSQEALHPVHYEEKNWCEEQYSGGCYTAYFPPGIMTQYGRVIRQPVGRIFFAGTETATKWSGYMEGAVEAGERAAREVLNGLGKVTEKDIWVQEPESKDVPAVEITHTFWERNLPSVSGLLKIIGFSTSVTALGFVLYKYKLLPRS

[4] = target: Sodium-dependent dopamine transporter (Homo sapiens, UniProt Q01959)
Mu-type opioid receptor = Mu-type opioid receptor (Homo sapiens, UniProt P35372)
[5] = target: 5-hydroxytryptamine receptor 2B (Homo sapiens, UniProt P41595); format: functional, cell-based
[6] = target: Hydroxycarboxylic acid receptor 2 (Homo sapiens, UniProt Q8TDS4)
D(1A) dopamine receptor = D(1A) dopamine receptor (Homo sapiens, UniProt P21728); format: functional, cell-based
[7] = target: Rod cGMP-specific 3',5'-cyclic phosphodiesterase subunit alpha (Homo sapiens, UniProt P16499); format: functional
Substance-K receptor = target: T5, Substance-K receptor (Homo sapiens, UniProt P21452)
T5 sequence (P21452 whole entry): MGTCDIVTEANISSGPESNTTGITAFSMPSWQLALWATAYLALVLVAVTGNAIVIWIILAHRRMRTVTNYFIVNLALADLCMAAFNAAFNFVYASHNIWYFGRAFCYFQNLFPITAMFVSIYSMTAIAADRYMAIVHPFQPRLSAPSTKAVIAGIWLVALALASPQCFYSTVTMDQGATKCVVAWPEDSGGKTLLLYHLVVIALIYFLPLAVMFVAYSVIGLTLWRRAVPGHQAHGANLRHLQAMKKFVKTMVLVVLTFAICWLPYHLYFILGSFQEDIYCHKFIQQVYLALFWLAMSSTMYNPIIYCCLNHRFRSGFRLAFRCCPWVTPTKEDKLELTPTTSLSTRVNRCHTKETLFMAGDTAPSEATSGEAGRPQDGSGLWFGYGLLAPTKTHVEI

[8] = target: 5-hydroxytryptamine receptor 5A (Homo sapiens, UniProt P47898)
Also: assay procedure not described here.

5-hydroxytryptamine receptor 5A, sequence (P47898 whole entry): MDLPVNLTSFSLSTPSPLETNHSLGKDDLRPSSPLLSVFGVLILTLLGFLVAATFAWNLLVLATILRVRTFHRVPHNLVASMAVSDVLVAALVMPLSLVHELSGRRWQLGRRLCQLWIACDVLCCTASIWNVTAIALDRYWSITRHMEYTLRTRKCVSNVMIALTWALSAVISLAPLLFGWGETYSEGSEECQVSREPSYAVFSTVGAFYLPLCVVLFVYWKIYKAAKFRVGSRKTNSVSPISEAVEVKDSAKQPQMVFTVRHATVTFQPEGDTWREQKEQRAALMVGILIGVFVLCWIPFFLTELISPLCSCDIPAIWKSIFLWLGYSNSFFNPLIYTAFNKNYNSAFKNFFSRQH
Rod cGMP-specific 3',5'-cyclic phosphodiesterase subunit alpha, sequence (P16499 whole entry): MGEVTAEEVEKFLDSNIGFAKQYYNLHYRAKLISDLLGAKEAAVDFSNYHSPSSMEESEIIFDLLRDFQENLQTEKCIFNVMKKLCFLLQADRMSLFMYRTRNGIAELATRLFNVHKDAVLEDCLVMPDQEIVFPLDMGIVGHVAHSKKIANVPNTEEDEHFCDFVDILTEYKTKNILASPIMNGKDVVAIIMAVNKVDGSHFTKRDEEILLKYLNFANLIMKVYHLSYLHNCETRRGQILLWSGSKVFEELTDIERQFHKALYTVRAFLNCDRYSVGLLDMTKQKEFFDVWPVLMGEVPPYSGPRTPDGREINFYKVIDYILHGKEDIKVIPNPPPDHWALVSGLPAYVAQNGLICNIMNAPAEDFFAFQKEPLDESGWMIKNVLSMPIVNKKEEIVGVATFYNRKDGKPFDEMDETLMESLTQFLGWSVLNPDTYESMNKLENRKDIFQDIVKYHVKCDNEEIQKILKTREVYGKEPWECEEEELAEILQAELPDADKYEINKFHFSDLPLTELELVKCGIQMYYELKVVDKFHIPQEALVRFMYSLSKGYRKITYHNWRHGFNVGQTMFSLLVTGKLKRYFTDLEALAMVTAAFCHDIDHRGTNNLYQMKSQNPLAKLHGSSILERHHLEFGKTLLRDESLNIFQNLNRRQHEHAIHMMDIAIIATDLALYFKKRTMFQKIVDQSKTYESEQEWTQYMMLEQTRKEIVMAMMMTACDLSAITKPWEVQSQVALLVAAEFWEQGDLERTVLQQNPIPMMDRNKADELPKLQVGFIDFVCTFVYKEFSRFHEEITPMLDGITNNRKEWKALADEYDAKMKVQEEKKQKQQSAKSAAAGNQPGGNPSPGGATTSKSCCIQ
Hydroxycarboxylic acid receptor 2, sequence (Q8TDS4 whole entry): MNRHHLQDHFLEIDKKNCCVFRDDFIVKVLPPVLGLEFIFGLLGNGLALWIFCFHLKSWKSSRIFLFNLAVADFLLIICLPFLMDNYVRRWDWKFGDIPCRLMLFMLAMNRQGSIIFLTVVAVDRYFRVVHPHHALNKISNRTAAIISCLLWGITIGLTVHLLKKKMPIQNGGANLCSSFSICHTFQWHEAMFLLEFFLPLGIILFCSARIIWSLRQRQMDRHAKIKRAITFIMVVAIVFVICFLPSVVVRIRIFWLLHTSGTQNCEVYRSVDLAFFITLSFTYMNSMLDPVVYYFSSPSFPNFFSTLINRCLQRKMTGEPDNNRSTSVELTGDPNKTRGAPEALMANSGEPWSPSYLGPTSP
5-hydroxytryptamine receptor 2B, sequence (P41595 whole entry): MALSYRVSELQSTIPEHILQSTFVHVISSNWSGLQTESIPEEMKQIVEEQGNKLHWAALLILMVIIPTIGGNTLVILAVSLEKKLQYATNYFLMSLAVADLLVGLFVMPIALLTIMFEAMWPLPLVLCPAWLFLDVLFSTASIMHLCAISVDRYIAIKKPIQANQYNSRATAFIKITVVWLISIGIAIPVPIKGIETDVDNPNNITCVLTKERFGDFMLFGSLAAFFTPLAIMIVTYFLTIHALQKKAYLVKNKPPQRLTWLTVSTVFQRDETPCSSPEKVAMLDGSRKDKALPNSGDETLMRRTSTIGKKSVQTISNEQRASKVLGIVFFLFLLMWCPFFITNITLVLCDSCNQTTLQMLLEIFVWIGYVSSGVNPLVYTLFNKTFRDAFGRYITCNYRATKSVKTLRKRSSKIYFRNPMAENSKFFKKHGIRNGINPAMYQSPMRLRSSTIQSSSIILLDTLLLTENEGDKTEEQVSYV
Mu-type opioid receptor, sequence (P35372 whole entry): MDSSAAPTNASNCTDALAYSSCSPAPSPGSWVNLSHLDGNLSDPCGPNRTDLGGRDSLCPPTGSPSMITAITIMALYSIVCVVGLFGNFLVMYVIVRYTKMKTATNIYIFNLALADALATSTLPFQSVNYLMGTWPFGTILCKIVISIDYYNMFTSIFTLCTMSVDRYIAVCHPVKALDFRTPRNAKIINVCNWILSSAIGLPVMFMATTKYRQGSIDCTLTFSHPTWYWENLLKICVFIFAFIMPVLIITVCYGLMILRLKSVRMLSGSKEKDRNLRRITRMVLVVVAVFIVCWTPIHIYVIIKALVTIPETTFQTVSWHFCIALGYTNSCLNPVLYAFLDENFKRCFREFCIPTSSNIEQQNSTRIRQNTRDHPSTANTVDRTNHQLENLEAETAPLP
Sodium-dependent dopamine transporter, sequence (Q01959 whole entry): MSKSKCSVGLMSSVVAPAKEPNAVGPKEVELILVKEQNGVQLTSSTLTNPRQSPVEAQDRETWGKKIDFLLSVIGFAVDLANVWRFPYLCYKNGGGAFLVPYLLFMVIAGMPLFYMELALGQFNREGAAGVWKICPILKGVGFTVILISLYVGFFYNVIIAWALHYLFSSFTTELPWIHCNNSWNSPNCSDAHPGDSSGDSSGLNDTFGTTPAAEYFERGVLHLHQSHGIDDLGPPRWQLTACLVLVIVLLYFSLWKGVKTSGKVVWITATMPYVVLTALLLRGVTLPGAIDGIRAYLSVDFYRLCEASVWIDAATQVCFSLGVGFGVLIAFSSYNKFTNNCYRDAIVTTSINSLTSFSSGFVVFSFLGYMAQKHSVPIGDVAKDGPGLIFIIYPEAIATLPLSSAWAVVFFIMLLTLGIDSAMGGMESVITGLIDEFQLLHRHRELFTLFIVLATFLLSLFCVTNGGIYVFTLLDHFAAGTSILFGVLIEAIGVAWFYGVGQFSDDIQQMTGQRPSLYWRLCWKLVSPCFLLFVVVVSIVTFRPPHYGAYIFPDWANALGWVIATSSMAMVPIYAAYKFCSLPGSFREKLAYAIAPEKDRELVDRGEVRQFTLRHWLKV
Prostaglandin G/H synthase 1, sequence (P23219 whole entry): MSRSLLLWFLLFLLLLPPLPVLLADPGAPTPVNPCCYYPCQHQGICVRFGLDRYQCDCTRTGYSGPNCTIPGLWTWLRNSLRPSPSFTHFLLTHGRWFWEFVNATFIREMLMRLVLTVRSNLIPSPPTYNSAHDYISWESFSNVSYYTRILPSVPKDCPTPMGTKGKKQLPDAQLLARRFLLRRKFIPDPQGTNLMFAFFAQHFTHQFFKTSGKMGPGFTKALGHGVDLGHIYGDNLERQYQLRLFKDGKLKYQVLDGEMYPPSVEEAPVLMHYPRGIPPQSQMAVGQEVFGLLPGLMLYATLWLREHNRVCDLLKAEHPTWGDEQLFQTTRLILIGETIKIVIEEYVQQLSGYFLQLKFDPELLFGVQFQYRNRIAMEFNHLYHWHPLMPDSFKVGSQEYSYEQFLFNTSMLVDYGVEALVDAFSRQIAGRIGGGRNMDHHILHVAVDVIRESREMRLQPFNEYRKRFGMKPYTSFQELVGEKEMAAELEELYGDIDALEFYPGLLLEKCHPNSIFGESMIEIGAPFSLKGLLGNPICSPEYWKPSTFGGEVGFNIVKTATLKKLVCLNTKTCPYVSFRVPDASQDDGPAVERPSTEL
D(1A) dopamine receptor, sequence (P21728 whole entry): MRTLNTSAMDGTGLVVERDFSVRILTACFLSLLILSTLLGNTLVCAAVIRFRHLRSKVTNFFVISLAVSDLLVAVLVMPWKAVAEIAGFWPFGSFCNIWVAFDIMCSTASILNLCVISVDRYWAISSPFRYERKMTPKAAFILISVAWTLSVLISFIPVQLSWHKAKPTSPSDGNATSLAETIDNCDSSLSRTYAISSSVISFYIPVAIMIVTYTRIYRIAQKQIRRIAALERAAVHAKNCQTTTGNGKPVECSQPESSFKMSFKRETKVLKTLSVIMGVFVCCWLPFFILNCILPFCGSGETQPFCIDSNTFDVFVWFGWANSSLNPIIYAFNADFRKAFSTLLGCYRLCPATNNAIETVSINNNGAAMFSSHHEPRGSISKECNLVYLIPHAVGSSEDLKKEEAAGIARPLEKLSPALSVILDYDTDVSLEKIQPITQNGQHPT

## Nc1nc2ccc(OC(F)(F)F)cc2s1 [RILUZOLE]
Prothrombin
  AC50: > 30 µM
[1]
  AC50: > 30 µM
Thromboxane A2 receptor
  AC50: > 30 µM
Estrogen receptor
  AC50: > 30 µM
[2]
  AC50: > 30 µM
[3]
  AC50: > 30 µM
[4]
  AC50: 18.7 µM
Mu-type opioid receptor
  AC50: > 30 µM
[5]
  AC50: > 30 µM

## BIVALIRUDIN
Prothrombin
  AC50: 0.0092 µM
[1]
  AC50: > 30 µM
Thromboxane A2 receptor
  AC50: > 30 µM
Estrogen receptor
  AC50: > 30 µM
[2]
  AC50: > 30 µM
[3]
  AC50: > 30 µM
[4]
  AC50: > 30 µM
Mu-type opioid receptor
  AC50: > 30 µM
[5]
  AC50: > 30 µM

## CN[C@@H](C)[C@H](O)c1ccccc1 [EPHEDRINE]
[6]
  AC50: > 10 µM

## CCN1CCC[C@H]1CNC(=O)c1cc(S(N)(=O)=O)ccc1OC [LEVOSULPIRIDE]
D(1A) dopamine receptor
  AC50: > 30 µM

## COc1ccc2cccc(CCNC(C)=O)c2c1 [AGOMELATINE]
[6]
  AC50: > 10 µM

## Cc1cc(-c2ccccc2)nnc1NCCN1CCOCC1 [MINAPRINE]
[6]
  AC50: > 10 µM

## CN(C)C(=O)OC1N=C(c2ccccc2)c2cc(Cl)ccc2N(C)C1=O (stereo not drawn) [CAMAZEPAM]
[7]
  AC50: > 10 µM
Substance-K receptor
  AC50: > 10 µM
[8]
  AC50: > 10 µM

## Cc1ccc(-c2nc3ccc(C)cn3c2CC(=O)N(C)C)cc1 [ZOLPIDEM]
[7]
  AC50: > 10 µM
Substance-K receptor
  AC50: > 10 µM
[8]
  AC50: > 10 µM

## NC(=O)C[S+]([O-])C(c1ccccc1)c1ccccc1 (stereo not drawn) [MODAFINIL]
[7]
  AC50: > 10 µM
Substance-K receptor
  AC50: > 10 µM
[8]
  AC50: > 10 µM

## O=C(O)CCCc1ccccc1 [PHENYLBUTANOIC ACID]
Substance-K receptor
  AC50: > 10 µM

## CCCCCCC(C)(C)c1cc(O)c2c(c1)OC(C)(C)C1CCC(=O)CC21 (stereo not drawn) [NABILONE]
D(1A) dopamine receptor
  AC50: > 30 µM

— ChEMBL document CHEMBL5291721, “A preclinical secondary pharmacology resource illuminates target-adverse drug reaction associations of marketed drugs” (Nat Commun, 2023)
